Reference: patent publication US12617758B2, “Quinazoline derivative having FLT3 inhibitory activity, and use thereof” (INDUSTRY-UNIVERSITY COOPERATION FOUNDATION HANYANG …, priority 2020, dated 2026)
pIC50: −log10 of the molar value. Like-named read-outs stand apart in the source and are kept apart here.

Experiments:
Format in all cases: biochemical
FLT3 [1] = target: T1, FLT3 (Homo sapiens, UniProt P36888); test: FLT3 enzyme activity (IC50)
T1 sequence (P36888 27-993): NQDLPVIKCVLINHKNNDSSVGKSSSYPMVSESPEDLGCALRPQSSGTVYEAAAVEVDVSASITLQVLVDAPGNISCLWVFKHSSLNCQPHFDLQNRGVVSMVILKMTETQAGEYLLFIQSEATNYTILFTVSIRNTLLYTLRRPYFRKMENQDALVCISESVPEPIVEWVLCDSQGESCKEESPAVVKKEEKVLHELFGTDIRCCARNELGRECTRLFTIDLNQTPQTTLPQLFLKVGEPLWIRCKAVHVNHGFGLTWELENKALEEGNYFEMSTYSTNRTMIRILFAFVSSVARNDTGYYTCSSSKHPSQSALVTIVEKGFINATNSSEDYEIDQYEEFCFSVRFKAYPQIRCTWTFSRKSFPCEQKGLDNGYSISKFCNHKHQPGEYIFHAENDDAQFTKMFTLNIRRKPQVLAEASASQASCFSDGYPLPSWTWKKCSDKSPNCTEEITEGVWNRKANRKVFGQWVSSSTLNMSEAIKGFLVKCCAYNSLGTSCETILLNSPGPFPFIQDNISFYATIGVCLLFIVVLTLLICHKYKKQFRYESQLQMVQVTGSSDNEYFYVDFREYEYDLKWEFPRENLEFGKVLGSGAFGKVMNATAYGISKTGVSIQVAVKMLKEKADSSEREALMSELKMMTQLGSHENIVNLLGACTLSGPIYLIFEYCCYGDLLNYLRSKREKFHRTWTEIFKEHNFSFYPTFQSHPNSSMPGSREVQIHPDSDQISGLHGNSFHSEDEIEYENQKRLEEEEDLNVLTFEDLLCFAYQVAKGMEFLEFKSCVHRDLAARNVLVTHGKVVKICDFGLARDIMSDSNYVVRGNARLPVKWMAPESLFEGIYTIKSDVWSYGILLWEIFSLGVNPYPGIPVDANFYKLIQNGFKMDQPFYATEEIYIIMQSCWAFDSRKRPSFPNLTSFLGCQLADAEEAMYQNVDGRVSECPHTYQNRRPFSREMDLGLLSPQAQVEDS
Description: Experimental Example 1. Measurement of FLT3 and FLT Enzyme Activity
Changes in FLT3 and FLT enzyme activities by treatment with the quinazoline derivatives of the following Table 1 according to the present invention were confirmed by IC50.

ABL1 = ABL1 (Homo sapiens, UniProt P00519); test: Kinase panel screening; settings: single dose of 10 μM, read-out: % inhibition rate
AKT1 = AKT1 (Homo sapiens, UniProt P31749); test: Kinase panel screening; settings: single dose of 10 μM, read-out: % inhibition rate
ALK = ALK (Homo sapiens, UniProt Q9UM73); test: Kinase panel screening; settings: single dose of 10 μM, read-out: % inhibition rate
Aurora A = Aurora A (Homo sapiens, UniProt O14965); test: Kinase panel screening; settings: single dose of 10 μM, read-out: % inhibition rate
AXL = AXL (Homo sapiens, UniProt P30530); test: Kinase panel screening; settings: single dose of 10 μM, read-out: % inhibition rate
AXL (R499C) = AXL (R499C) (Homo sapiens, UniProt P30530, R499C); test: Kinase panel screening; settings: single dose of 10 μM, read-out: % inhibition rate
c-Kit = c-Kit (Homo sapiens, UniProt P10721); test: Kinase panel screening; settings: single dose of 10 μM
Chain of c-Kit (P10721 26-976): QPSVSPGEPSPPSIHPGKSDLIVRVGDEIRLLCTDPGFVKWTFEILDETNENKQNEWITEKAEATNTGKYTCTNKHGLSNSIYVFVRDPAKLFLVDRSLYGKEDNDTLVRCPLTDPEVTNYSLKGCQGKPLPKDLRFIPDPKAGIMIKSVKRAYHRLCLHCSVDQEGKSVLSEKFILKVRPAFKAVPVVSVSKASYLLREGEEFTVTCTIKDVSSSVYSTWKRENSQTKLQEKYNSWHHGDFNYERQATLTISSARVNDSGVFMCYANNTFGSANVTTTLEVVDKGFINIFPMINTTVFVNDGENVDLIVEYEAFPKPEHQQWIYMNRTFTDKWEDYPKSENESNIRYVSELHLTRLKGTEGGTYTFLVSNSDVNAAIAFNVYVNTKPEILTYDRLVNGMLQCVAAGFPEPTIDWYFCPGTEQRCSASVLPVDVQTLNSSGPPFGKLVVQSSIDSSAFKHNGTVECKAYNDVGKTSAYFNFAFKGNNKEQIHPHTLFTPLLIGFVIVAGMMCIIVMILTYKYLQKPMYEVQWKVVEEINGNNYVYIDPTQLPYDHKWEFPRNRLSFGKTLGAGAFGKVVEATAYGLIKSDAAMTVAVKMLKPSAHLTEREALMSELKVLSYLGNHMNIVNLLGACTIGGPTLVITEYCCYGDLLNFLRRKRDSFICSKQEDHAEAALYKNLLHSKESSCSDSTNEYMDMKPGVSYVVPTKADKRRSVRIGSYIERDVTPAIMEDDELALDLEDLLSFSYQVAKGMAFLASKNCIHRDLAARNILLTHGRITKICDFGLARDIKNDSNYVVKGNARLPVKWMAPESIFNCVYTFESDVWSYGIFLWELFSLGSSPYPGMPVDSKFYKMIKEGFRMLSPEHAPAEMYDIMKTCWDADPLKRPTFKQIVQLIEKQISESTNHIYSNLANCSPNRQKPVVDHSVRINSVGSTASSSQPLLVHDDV

c-MET = c-MET (Homo sapiens, UniProt P08581); test: Kinase panel screening; settings: single dose of 10 μM, read-out: % inhibition rate
Chain of c-MET (P08581 25-1390): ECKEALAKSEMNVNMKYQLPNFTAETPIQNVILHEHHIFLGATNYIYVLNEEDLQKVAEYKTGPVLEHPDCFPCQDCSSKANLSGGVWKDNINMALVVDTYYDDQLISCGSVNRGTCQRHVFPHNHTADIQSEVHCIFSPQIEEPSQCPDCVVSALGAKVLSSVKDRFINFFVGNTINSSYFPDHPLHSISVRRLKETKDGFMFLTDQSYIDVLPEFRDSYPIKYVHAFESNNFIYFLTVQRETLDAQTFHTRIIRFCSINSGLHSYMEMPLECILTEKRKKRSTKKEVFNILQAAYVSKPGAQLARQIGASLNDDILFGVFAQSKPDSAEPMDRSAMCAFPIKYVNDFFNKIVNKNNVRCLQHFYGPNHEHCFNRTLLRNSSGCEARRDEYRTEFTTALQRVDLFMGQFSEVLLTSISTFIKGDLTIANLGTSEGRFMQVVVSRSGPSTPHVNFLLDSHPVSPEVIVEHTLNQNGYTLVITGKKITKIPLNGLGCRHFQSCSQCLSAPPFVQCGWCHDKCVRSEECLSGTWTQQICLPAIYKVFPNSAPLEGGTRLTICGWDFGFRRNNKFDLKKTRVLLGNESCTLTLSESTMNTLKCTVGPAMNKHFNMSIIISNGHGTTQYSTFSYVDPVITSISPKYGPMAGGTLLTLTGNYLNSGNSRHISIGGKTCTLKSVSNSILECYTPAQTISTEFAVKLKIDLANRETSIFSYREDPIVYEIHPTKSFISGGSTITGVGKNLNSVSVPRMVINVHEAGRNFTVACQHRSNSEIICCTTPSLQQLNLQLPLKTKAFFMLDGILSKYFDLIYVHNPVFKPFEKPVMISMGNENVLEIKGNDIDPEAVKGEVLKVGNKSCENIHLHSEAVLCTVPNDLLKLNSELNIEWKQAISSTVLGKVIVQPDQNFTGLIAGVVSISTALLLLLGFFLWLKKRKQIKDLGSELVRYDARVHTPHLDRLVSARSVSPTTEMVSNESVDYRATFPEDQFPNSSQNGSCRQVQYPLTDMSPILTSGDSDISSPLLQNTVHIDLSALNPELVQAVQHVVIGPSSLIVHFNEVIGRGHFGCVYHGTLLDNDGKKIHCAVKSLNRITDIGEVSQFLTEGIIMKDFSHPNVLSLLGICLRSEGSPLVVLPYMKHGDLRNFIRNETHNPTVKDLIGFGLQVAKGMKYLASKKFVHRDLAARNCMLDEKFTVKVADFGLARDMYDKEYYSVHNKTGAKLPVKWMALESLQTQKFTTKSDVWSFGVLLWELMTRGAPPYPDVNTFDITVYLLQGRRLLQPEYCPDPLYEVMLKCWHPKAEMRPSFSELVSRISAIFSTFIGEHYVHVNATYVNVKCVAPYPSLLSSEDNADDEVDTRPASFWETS

CAMKK1 = CAMKK1 (Homo sapiens, UniProt Q8N5S9); test: Kinase panel screening; settings: single dose of 10 μM, read-out: % inhibition rate
CDK4/cyclin D1 = CDK4/cyclin D1 (Homo sapiens, UniProt P11802); test: Kinase panel screening; settings: single dose of 10 μM, read-out: % inhibition rate
EGFR = EGFR (Homo sapiens, UniProt P00533); test: Kinase panel screening; settings: single dose of 10 μM, read-out: % inhibition rate
FGFR3 = FGFR3 (Homo sapiens, UniProt P22607); test: Kinase panel screening; settings: single dose of 10 μM, read-out: % inhibition rate
Chain of FGFR3 (P22607 23-806, species assumed): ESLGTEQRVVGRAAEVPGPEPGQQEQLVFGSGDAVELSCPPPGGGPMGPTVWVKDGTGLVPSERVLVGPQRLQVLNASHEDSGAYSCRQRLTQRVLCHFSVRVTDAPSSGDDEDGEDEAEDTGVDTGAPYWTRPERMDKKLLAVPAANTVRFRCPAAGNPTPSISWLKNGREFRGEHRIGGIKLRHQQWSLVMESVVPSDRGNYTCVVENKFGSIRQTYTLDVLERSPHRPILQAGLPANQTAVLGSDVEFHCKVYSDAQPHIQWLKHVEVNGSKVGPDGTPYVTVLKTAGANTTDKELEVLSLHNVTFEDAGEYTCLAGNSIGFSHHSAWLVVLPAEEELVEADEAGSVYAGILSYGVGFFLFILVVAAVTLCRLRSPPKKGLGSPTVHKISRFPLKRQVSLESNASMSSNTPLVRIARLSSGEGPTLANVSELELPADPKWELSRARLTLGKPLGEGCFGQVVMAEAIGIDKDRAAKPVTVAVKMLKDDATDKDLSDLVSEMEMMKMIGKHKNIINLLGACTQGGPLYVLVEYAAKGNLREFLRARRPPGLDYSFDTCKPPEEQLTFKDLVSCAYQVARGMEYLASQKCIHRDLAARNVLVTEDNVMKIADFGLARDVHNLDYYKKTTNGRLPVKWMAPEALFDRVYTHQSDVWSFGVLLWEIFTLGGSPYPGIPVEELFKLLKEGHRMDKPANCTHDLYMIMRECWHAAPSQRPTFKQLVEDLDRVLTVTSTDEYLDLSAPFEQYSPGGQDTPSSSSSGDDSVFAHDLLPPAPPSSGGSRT

FLT3 [2] = target: T1, FLT3; test: Kinase panel screening; settings: single dose of 10 μM
FLT3-ITD = FLT3-ITD (Homo sapiens, UniProt P36888); test: Kinase panel screening; settings: single dose of 10 μM
FMS = FMS (Homo sapiens, UniProt P07333); test: Kinase panel screening; settings: single dose of 10 μM, read-out: % inhibition rate
FYN = FYN (Homo sapiens, UniProt P06241); test: Kinase panel screening; settings: single dose of 10 μM, read-out: % inhibition rate
Chain of FYN (P06241 whole entry, species assumed): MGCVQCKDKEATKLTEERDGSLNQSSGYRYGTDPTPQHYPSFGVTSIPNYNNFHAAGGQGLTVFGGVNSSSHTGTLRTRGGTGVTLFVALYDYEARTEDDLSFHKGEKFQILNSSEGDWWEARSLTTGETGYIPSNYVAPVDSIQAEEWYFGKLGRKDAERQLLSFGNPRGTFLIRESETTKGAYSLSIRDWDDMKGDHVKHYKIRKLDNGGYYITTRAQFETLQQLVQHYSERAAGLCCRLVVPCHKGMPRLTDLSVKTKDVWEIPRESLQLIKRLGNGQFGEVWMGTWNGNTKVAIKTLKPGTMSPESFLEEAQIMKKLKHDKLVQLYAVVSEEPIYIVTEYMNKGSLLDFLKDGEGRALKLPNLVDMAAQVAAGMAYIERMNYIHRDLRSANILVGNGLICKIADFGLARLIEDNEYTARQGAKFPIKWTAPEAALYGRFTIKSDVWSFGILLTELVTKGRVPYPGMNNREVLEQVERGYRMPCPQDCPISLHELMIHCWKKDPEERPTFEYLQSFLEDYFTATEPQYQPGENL

GSK3b = GSK3b (Homo sapiens, UniProt P49841); test: Kinase panel screening; settings: single dose of 10 μM, read-out: % inhibition rate
IGF1R = IGF1R (Homo sapiens, UniProt P08069); test: Kinase panel screening; settings: single dose of 10 μM, read-out: % inhibition rate
Chain of IGF1R (P08069 31-1367, species assumed): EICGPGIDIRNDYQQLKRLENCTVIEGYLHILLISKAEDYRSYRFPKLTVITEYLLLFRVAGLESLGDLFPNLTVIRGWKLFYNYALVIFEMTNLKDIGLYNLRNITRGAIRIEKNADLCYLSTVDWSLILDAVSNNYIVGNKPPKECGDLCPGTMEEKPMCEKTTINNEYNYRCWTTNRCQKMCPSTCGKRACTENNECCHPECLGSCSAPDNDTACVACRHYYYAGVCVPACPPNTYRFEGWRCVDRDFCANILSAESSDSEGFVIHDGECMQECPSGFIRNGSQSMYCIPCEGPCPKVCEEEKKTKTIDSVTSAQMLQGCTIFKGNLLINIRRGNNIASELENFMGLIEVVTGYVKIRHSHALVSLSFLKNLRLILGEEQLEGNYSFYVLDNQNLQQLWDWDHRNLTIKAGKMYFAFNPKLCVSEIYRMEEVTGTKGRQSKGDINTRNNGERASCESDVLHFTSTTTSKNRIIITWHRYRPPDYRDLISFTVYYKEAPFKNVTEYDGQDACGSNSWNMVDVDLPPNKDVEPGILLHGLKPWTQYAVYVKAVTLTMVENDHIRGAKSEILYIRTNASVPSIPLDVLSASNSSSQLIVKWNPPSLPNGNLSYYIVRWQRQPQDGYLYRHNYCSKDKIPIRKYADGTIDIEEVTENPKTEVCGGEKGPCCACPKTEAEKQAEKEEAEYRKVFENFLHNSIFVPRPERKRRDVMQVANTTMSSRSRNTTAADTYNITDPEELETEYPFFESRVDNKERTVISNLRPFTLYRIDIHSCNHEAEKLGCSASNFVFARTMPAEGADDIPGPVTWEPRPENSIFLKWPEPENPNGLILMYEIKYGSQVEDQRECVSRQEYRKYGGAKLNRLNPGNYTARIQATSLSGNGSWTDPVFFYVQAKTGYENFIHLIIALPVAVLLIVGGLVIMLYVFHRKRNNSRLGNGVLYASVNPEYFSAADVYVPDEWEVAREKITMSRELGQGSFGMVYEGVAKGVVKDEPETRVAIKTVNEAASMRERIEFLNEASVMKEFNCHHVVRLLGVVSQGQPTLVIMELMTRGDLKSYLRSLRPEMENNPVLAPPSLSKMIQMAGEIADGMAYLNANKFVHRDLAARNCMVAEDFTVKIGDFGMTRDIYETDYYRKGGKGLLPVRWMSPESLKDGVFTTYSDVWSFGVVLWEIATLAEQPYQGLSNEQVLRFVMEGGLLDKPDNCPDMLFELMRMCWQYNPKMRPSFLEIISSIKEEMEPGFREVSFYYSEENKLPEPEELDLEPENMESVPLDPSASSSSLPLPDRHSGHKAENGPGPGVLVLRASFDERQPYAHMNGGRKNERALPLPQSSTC

JAK3 = JAK3 (Homo sapiens, UniProt P52333); test: Kinase panel screening; settings: single dose of 10 μM, read-out: % inhibition rate
JNK3 = JNK3 (Homo sapiens, UniProt P53779); test: Kinase panel screening; settings: single dose of 10 μM, read-out: % inhibition rate
MEK1 = MEK1 (Homo sapiens, UniProt Q02750); test: Kinase panel screening; settings: single dose of 10 μM, read-out: % inhibition rate
P38a/MAPK14 = P38a/MAPK14 (Homo sapiens, UniProt Q16539); test: Kinase panel screening; settings: single dose of 10 μM, read-out: % inhibition rate
PKA = PKA (Homo sapiens, UniProt P17612); test: Kinase panel screening; settings: single dose of 10 μM, read-out: % inhibition rate
PLK1 = PLK1 (Homo sapiens, UniProt P53350); test: Kinase panel screening; settings: single dose of 10 μM, read-out: % inhibition rate
RIPK3 = RIPK3 (Homo sapiens, UniProt Q9Y572); test: Kinase panel screening; settings: single dose of 10 μM, read-out: % inhibition rate
Experimental: Next, kinase panel screening for Compound 7d was investigated for 36 different kinases at a single dose of 10 μM (FIG. 1 and Table 3).

ROS/ROS1 = ROS/ROS1 (Homo sapiens, UniProt P08922); test: Kinase panel screening; settings: single dose of 10 μM, read-out: % inhibition rate
SYK = SYK (Homo sapiens, UniProt P43405); test: Kinase panel screening; settings: single dose of 10 μM, read-out: % inhibition rate

`Cc1oncc1C(=O)Nc1ccc2cnc(-c3cc(N4CCN(C)CC4)cc(C(F)(F)F)c3)nc2c1` [Compound 7d, 5-methyl-N-(2-(3-(4-methylpiperazin-1-yl)-5-(trifluoromethyl)phenyl)quinazolin-7-yl)isoxazole-4-carboxamide] gave a pIC50 (FLT3 [1]; read-out: FLT3 IC50) of over 5.52, a pIC50 (FLT3 [1]; read-out: IC50 against FLT3) of 6.97 and an inhibition at 10 µM (ABL1) of 6.46%. It also gave an inhibition at 10 µM (AKT1) of 5.48%, an inhibition at 10 µM (ALK) of 17% and an inhibition at 10 µM (Aurora A) of 20.1%. For the same molecule, the inhibition at 10 µM (AXL) was 21.2%, the inhibition at 10 µM (AXL (R499C)) was 10.1% and the “% inhibition rate” value (c-Kit) was “did not exhibit inhibitory activity”. The inhibition at 10 µM (c-Kit; read-out: % inhibition rate) was 0%, the inhibition at 10 µM (c-MET) was 13.2% and the inhibition at 10 µM (CAMKK1) was 0%. For the same molecule, the inhibition at 10 µM (CDK4/cyclin D1) was 3.01%, the inhibition at 10 µM (EGFR) was 0% and the inhibition at 10 µM (FGFR3) was 1%. The “% inhibition rate” value (FLT3 [2]) was 96.6%, the “% inhibition rate” value (FLT3-ITD) was 95.2% and the inhibition at 10 µM (FMS) was 5.49%. The inhibition at 10 µM (FYN) was 19%, the inhibition at 10 µM (GSK3b) was 8.06% and the inhibition at 10 µM (IGF1R) was 0%. It also gave an inhibition at 10 µM (JAK3) of 0.8%, an inhibition at 10 µM (JNK3) of 19.5% and an inhibition at 10 µM (MEK1) of 0%. The inhibition at 10 µM (P38a/MAPK14) was 0%, the inhibition at 10 µM (PKA) was 2.5% and the inhibition at 10 µM (PLK1) was 0%. For the same molecule, the inhibition at 10 µM (RIPK3) was 12.8%, the inhibition at 10 µM (ROS/ROS1) was 14.4% and the inhibition at 10 µM (SYK) was 22.4%.
